Data from ChEMBL document CHEMBL4422615, “Novel non-xanthine antagonist of the A2B adenosine receptor: From HTS hit to lead structure” (Eur J Med Chem, 2019).
pIC50, pKi: −log10 of the molar value. Calls of active or inactive are those of the source. No cut-off for these calls is given here.

How the values were obtained:
Adenosine receptor A2b = biological target: T1, Adenosine receptor A2b (Rattus norvegicus, UniProt P29276); test: Antagonist activity at recombinant rat A2B adenosine receptor expressed in CHO cells after 3 to 4 hrs by luciferase reporter gene assay; assay type: cell-based
T1 sequence (P29276 whole entry): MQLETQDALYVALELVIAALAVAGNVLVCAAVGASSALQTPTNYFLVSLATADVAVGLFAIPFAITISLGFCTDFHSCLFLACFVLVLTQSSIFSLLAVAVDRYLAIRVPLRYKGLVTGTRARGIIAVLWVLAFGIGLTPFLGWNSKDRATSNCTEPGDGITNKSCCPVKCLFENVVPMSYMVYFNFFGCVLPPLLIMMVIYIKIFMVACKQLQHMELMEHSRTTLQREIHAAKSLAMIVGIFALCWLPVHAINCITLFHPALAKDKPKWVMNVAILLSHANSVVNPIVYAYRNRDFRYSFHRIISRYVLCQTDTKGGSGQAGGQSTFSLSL

Adenosine receptor A3 [1] = biological target: T2, Adenosine receptor A3 (Homo sapiens, UniProt P0DMS8); test: Displacement of [125I]AB-MECA from human A3 adenosine receptor expressed in HEK293 cell membranes after 120 mins by radioligand displacement assay
T2 sequence (P0DMS8 whole entry): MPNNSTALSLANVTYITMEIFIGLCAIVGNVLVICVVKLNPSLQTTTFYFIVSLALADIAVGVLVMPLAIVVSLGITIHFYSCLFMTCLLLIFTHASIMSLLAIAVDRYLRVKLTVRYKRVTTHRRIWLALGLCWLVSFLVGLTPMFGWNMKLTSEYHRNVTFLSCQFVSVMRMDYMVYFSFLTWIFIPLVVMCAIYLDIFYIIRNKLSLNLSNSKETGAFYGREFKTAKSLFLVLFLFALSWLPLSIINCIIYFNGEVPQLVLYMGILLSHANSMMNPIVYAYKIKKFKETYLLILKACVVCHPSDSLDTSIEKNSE

Adenosine receptor A3 [2] = biological target: T2, Adenosine receptor A3; test: Antagonist activity at recombinant human A3 adenosine receptor expressed in CHO cells after 3 to 4 hrs by luciferase reporter gene assay; assay type: cell-based
[3] = Blood clearance in mouse by measuring intrinsic clearance in mouse liver microsomes by MS/MS analysis; assay type: ADME
Cytochrome P450 2C8 = biological target: T3, Cytochrome P450 2C8 (Homo sapiens, UniProt P10632); test: Inhibition of CYP2C8 in human liver microsomes using amodiaquine as substrate after 15 mins in presence of NADPH by LC-MS/MS analysis; assay type: ADME
T3 sequence (P10632 whole entry): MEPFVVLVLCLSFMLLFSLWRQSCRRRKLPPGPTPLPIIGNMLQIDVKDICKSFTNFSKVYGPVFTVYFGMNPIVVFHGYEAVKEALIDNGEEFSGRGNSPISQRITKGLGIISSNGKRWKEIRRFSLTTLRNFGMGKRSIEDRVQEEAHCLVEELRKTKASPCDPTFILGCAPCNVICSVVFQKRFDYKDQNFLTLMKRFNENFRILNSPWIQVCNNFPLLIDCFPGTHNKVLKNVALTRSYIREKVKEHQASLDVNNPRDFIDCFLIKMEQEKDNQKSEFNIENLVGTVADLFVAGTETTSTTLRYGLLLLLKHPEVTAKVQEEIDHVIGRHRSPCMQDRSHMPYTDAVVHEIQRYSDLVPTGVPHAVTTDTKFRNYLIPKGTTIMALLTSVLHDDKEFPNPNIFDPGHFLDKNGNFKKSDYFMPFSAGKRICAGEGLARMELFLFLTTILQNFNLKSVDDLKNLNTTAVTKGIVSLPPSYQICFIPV

[4] = Half life in rat at 1 mg/kg, po for 15 mins by HPLC-MS/MS analysis; assay type: ADME, organism-based; details: in vivo
Mus musculus = test: Antifibrotic activity in silica-induced C57BL/6J mouse pulmonary fibrosis model assessed as reduction in lung weight at 100 to 500 mg/kg, bid administered via gavage treated from day 1 until day 7 after silica application; assay type: functional, organism-based
Adenosine receptor A1 = biological target: T4, Adenosine receptor A1 (Homo sapiens, UniProt P30542); test: Displacement of [3H]DPCPX from human A1 adenosine receptor expressed in CHO cell membranes after 60 mins by radioligand displacement assay
T4 sequence (P30542 whole entry): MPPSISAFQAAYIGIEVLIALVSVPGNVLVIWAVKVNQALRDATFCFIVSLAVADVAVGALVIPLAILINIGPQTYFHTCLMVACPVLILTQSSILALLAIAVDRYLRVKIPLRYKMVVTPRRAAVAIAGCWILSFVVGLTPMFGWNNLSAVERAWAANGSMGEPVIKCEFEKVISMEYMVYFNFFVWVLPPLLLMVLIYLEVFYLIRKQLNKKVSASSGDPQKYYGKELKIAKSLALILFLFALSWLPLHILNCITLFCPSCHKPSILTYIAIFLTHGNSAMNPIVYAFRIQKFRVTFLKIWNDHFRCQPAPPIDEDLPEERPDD

[5] = Half life in dog at 0.3 mg/kg, iv administered as infusion for 15 mins by HPLC-MS/MS analysis; assay type: ADME, organism-based, Canis lupus familiaris; details: in vivo
[6] = Partition coefficient, log P of the compound; assay type: physicochemical; details: octanol/water
[7] = Toxicity in silica-induced C57BL/6J mouse pulmonary fibrosis model assessed as change in body weight at 100 to 500 mg/kg, bid administered via gavage treated from day 1 until day 7 after silica application; assay type: organism-based; details: in vivo, po
[8] = Volume of distribution at steady state in rat at 0.3 mg/kg, iv administered as infusion for 15 mins by HPLC-MS/MS analysis; assay type: ADME, organism-based; details: in vivo, read-out: Vdss
[9] = Dose normalized AUC in rat at 1 mg/kg, po for 15 mins by HPLC-MS/MS analysis; assay type: ADME, organism-based; details: in vivo, 0.25 h
[10] = Volume of distribution at steady state in dog at 0.3 mg/kg, iv administered as infusion for 15 mins by HPLC-MS/MS analysis; assay type: ADME, organism-based, Canis lupus familiaris; details: in vivo, read-out: Vdss
[11] = Clearance in dog blood at 0.3 mg/kg, iv administered as bolus dose by HPLC-MS/MS analysis; assay type: ADME, organism-based, Canis lupus familiaris
Cytochrome P450 2D6 = Cytochrome P450 2D6 (Homo sapiens, UniProt P10635); test: Inhibition of CYP2D6 in human liver microsomes using dextromethorphan as substrate after 15 mins in presence of NADPH by LC-MS/MS analysis; assay type: ADME
Chain of Cytochrome P450 2D6 (P10635 whole entry): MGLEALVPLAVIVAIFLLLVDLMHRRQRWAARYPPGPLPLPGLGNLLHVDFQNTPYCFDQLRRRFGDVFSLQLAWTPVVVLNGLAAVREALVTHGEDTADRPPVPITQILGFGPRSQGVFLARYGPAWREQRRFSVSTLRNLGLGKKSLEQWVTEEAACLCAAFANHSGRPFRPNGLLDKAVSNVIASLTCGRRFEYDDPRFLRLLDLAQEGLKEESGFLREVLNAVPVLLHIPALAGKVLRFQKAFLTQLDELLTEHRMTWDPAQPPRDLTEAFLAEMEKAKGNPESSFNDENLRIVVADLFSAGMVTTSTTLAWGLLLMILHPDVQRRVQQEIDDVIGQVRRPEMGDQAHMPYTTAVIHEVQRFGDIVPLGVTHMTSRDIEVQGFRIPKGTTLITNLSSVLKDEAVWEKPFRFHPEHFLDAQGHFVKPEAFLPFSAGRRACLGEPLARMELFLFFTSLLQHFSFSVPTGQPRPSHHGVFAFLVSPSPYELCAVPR

[12] = Clearance in mouse plasma at 0.3 mg/kg, iv administered as bolus dose by HPLC-MS/MS analysis; assay type: ADME, organism-based
[13] = Apparent permeability from apical side to basolateral side in human Caco2 cells; assay type: ADME, cell-based; details: Caco-2
[14] = Fraction unbound in rat plasma by equilibrium dialysis method; assay type: ADME, cell-free
Homo sapiens = organism: Homo sapiens; test: (§1) Anti-inflammatory activity in human LL29 cells assessed as reduction in NECA-induced IL6 level after 24 hrs by ELISA; assay type: functional, cell-based
[15] = as §1; assay type: functional, cell-based
[16] = Efflux ratio in human Caco2 cells; assay type: ADME, cell-based; details: Caco-2

CCn1c(=O)c2c(C)c(C(=O)N3CCC(O)CC3)sc2n(CCC(F)(F)F)c1=O
pIC50 (Adenosine receptor A2b): 6.55
pKi (Adenosine receptor A3 [1]): < 5.00
pIC50 (Adenosine receptor A3 [2]): < 5.17
CLhep predicted [3]: < 8.33 mL/min/kg
pIC50 (Cytochrome P450 2C8): < 4.70
half-life [4]: 1.4 h
Activity (Mus musculus): Active
pKi (Adenosine receptor A1): < 6.00
half-life [5]: 6.6 h
logP [6]: 1.99
Activity [7]: Non-Toxic
Vd [8]: 1.5 L/kg
AUC/dose [9]: 0.78 kg·h/L
Vd [10]: 2 L/kg
clearance [11]: 7.33 mL/min/kg
pIC50 (Cytochrome P450 2D6): < 4.70
clearance [12]: 10.2 mL/min/kg
Papp A→B [13]: 48 ×10⁻⁶ cm/s
fraction unbound [14]: 0.7
Activity (Homo sapiens): Dose-dependent effect
pIC50 [15]: 6.73
efflux ratio [16]: 0.82
